According to patent publication US12723023B2, “Ionizable cationic lipids for RNA delivery” (Arcturus Therapeutics, Inc., priority 2021, dated 2026):

Tests used:
[1] = In vivo biodegradability assay (lipid concentration in mouse liver by LC-MS); design: species or system mice; conditions: BLOQ: below level of quantification; for In vivo degradability (ng/tissue) at 48 h 0.1 mpk: Table 2, 0.1 mpk; for In vivo degradability (ng tissue) at 48 h 0.1 mpk: Table 1, 0.1 mpk
Protocol: In vivo biodegradability assay was performed to assess the biodegradability of lipids in the LNP. Briefly, mice were injected with either 0.1 or 0.03 mg/Kg dose and after 24 or 48 hours mice livers were collected. To measure the concentration of lipids in the mouse liver, liver samples were homogenized in appropriate buffer in 1-10 dilution and mixed with the same amount of stabilized plasma. The samples were then mixed with organic solvents spiked with internal standard to precipitate proteins. After centrifugation, supernatant was diluted further with organic solvent before sample analysis by LC-MS. In LC-MS analysis, positive electrospray ionization was used, and multiple reaction monitoring (MRM) parameters were set up to specifically target the lipid analyte and internal standard. Calibration standards were prepared in stabilized plasma and mixed with same amount of homogenization buffer before protein precipitation. Quality control samples with known amounts of lipid was prepared in blank liver homogenate to monitor the precision and accuracy of the assay.

[2] = Mouse plasma stability; type: in vitro ADME, CD-1 mouse; conditions: 1 μM lipid
Protocol: Lipid stock solution was prepared by dissolution of the lipid in isopropanol at the concentration of 5 mg/mL. A requisite volume of the lipid-isopropanol solution was then diluted to 100 μM concentration at a total volume of 1.0 mL with in 50:50 (v/v) ethanol/water. Ten microliters of this 100 μM solution was spiked into 1.0 mL of mouse plasma (BioIVT, Cat. No.: MSE00PLNHUNN, CD-1 mouse, anticoagulant: sodium heparin, not filtered) that was pre-warmed to 37° C. and was stirred at 50 rpm with a magnetic stir bar. The starting concentration of lipids in plasma was thus 1 μM. At time points 0, 15, 30, 45, 60 and 120 min, 0.1 mL of the plasma was withdrawn from the reaction mixture and the protein was precipitated by adding 0.9 mL of ice-cold 4:1 (v/v) acetonitrile/methanol with 1 μg/mL of a selected internal standard lipid added. After filtration through a 0.45 micron 96-well filtering plate, the filtrates were analyzed by LC-MS (Thermo Fisher's Vanquish UHPLC-LTQ XL linear ion trap Mass Spectrometer); Waters XBridge BEH Shield RP18 2.5 micron (2.1×100 mm) column with its matching guard column. Mobile phase A was 0.1% formic acid in water, and mobile phase B was 0.1% formic acid in 1:1 (v/v) acetonitrile/methanol. Flow rate was 0.5 ml/min. Elution gradient was: Time 0-1 min: 10% B; 1-6 min: 10%-95% B; 6-8.5 min: 95% B; 8.5-9 min: 95%-10% B; 9-10 min: 10% B. Mass spectrometry was in positive scanning mode from 600-1100 m/z. The peak of the molecular ion of the lipids was integrated in the extracted ion chromatography (XIC) using Xcalibur software (Thermo Fisher). The relative peak area compared to T=0, after normalization by the peak area of the internal standard, was used as the percentage of the lipid remaining at each time point. T1/2 values were calculated using the first-order decay model.

SMILES | In vivo degradability (ng/tissue) at 48 h 0.03 mpk ([1]; Table 2, 0.03 mpk) | In vivo degradability (ng/tissue) at 48 h 0.1 mpk [1] | Plasma half life % remaining after 2 h ([2]; Table 2, 37° C.) | In vivo degradability (ng/tissue) at 48 h 0.03 mpk ([1]; Table 1, 0.03 mpk) | In vivo degradability (ng tissue) at 48 h 0.1 mpk [1] | Plasma half life % remaining after 2 h ([2]; Table 1, 37° C.)
CC1CCC(CCC(=O)OCC(C)(COC(=O)CCC2CCC(C)CC2)COC(=O)CCN(CCC(=O)OCC(C)(COC(=O)CCC2CCC(C)CC2)COC(=O)CCC2CCC(C)CC2)C(=O)SCCCN(C)C)CC1 (stereo not drawn) [LIPID 20] | <340 ng/tissue | <340 ng/tissue | 100% | – | – | –
CCCCCCCC(=O)OCC(COC(=O)CCCCCCC)OC(=O)CCCC(CCCC(=O)OC(COC(=O)CCCCCCC)COC(=O)CCCCCCC)SC(=O)CCCN(C)C [LIPID 4, bis(1,3-bis(Octanoyloxy)propan-2-yl) 5-((4-(dimethylamino)butanoyl)thio)nonanedioate] | BLOQ | BLOQ | 13% | BLOQ | BLOQ | 13%
CCCCCCCCC(=O)OCC(COC(=O)CCCCCCCC)OC(=O)CCCN(CCCC(=O)OC(COC(=O)CCCCCCCC)COC(=O)CCCCCCCC)C(=O)SCCCN(C)C [LIPID 1, ((4,4′-((((3-(Dimethylamino)propyl)thio)carbonyl)azanediyl)bis(butanoyl))bis(oxy))bis(propane-2,1,3-triyl) tetranonanoate] | BLOQ | BLOQ | 14% | BLOQ | BLOQ | 14%
CCC1CCC(C(=O)OCC(C)(COC(=O)CCN(CCC(=O)OCC(C)(COC(=O)C2CCC(CC)CC2)COC(=O)C2CCC(CC)CC2)C(=O)SCCCN(C)C)COC(=O)C2CCC(CC)CC2)CC1 (stereo not drawn) [LIPID 22, ((3,3′-((((3-(Dimethylamino)propyl)thio)carbonyl)azanediyl)bis(propanoyl))bis(oxy))bis(methylene)bis(2-methylpropane-2,1,3-triyl) tetrakis(2-(4-ethylcyclohexyl)acetate)] | <340 ng/tissue | <340 ng/tissue | 100% | – | – | –
CN(C)CCCSC(=O)N(CCCC(=O)OC(COC(=O)C1CCC2CCCC2C1)COC(=O)C1CCC2CCCC2C1)CCCC(=O)OC(COC(=O)C1CCC2CCCC2C1)COC(=O)C1CCC2CCCC2C1 (stereo not drawn) [LIPID 30, ((4,4′-((((3-(dimethylamino)propyl)thio)carbonyl)azanediyl)bis(butanoyl))bis(oxy))bis(propane-2,1,3-triyl) tetrakis(octahydro-1H-indene-5-carboxylate)] | BLOQ | BLOQ | 100% | – | – | –
CCCCC(C)(C)CC(=O)OCC(C)(COC(=O)CCN(CCC(=O)OCC(C)(COC(=O)CC(C)(C)CCCC)COC(=O)CC(C)(C)CCCC)C(=O)SCCCN(C)C)COC(=O)CC(C)(C)CCCC [LIPID 23] | <340 ng/tissue | <340 ng/tissue | 100% | – | – | –
CN(C)CCCSC(=O)N(CCCC(=O)OC(COC(=O)CCC1CCCCC1)COC(=O)CCC1CCCCC1)CCCC(=O)OC(COC(=O)CCC1CCCCC1)COC(=O)CCC1CCCCC1 [LIPID 10, ((4,4′-((((3-(Dimethylamino)propyl)thio)carbonyl)azanediyl)bis(butanoyl))bis(oxy))bis(propane-2,1,3-triyl) tetrakis(3-cyclohexylpropanoate)] | BLOQ | BLOQ | 36% | BLOQ | BLOQ | 36%
